Test results taken from US12466849B2, “Anti-viral and anti-tumoral compounds” (YEDA RESEARCH AND DEVELOPMENT CO. LTD, priority 2020, dated 2025).
≈ marks a conversion by molar mass, not a printed value. Where two headings read alike, the source gives them in different places.

Legend:
[1] = system: Yellow fever virus (YFV)
[2] = system: Influenza B
[3] = system: influenza A(H5N1)
[4] = system: Venezuelan equine encephalitis virus (VEEV)
[5] = system: poliovirus-1 (POV-1)
[6] = system: RSV
[7] = system: SARS-CoV-2
[8] = system: Japanese encephalitis virus (JEV)
[9] = system: Powassan virus (POWV)
[10] = system: West Nile virus (WNV)
[11] = system: MRC-5 cells
[12] = system: adenovirus-5 (Ad5)
[13] = system: SARS-CoV
[14] = system: enterovirus-68 (EV-68)
[15] = system: Zika virus
[16] = system: Rift Valley fever virus (RVFV)
[17] = system: HCMV AD169; assay: HCMV plaque reduction assay, MRC-5 cells, strain AD169; format: cell-based, Human cytomegalovirus; settings: for EC50: plaque assay, 6-days duration
[18] = system: TCRV
[19] = system: dengue virus-2 (DV-2)
[20] = system: influenza A(H1N1)
[21] = system: HFF cells; assay: Cell proliferation assay, human foreskin fibroblast (HFF) cells; format: cell-based; settings: Homo sapiens, 72 h, cell number
[22] = in vitro; settings: African green monkey
[23] = in vitro; settings: male, SD, rat, plasma
[24] = system: JC virus (JCV)
[25] = in vitro; settings: both, human, plasma
[26] = system: JC virus (JCV); assay: microbe, parasite or virus in culture; settings: JC polyomavirus, COS-7
[27] = in vitro; settings: human
[28] = system: BK virus (BKV), Gardner strain; assay: microbe, parasite or virus in culture; settings: Betapolyomavirus hominis, HFF
[29] = Secondary JCV assay (qPCR), COS7 cells; settings: African green monkey
[30] = system: JC virus (JCV); assay: Secondary JCV assay (qPCR), COS7 cells
[31] = in vitro; settings: human; remark: listed apart in the source
[32] = in vitro; settings: human; remark: listed apart in the source
[33] = rat; for Peak area ratio, parent: 1 µM
[34] = in vitro; settings: rat
[35] = human
[36] = MRC-5 cytotoxicity assay (MTS) and visual cytotoxicity; settings: human
[37] = system: BK virus (BKV), Gardner strain
[38] = Liver (hepatic) S9 stability, human
[39] = Liver (hepatic) S9 stability, rat
[40] = system: enterovirus-68 (EV-68); assay: organism not typed; settings: RD, read-out: EQ50
[41] = target: T1, SARS-Cov2 RdRp (nsp12-nsp7-nsp8) (Severe acute respiratory syndrome coronavirus 2, UniProt P0DTD1); format: biochemical; settings: primer extension; analog at 100 uM, printed 100 mM
[42] = target: T1, SARS-Cov2 RdRp (nsp12-nsp7-nsp8); format: biochemical; settings: after addition of GTP and CTP (third and fourth nucleotides)
[43] = Vero 76 cells without virus, test compounds

Compound: O=c1ccn([C@@H]2OC(CO)=C[C@H]2O)c(=O)[nH]1 [AB21649]
- CC50 ([1]; Huh7 cells without virus, test compounds): > 2000 µM
- EC50 ([1]; YFV, Huh7 cells, test compounds): > 2000 µM
- SI ([1]; YFV, SI = CC50/EC50): 0
- CC50 [2]: 1300 µM
- EC50 [2]: 310 µM
- antiviral activity against Influenza B (in words) [2]: exhibits antiviral activity
- SI ([2]; Influenza B, SI = CC50/EC50): 4.2
- CC50 ([3]; MDCK cells without virus, test compounds): 1300 µM
- antiviral activity against Influenza (H5N1) (in words) ([3]; Table 11): exhibits antiviral activity
- EC50 ([3]; influenza A(H5N1), MDCK cells, test compounds): 800 µM
- SI ([3]; influenza A(H5N1), SI = CC50/EC50): 1.6
- SI ([4]; VEEV, SI = CC50/EC50): 0
- EC50 ([4]; VEEV, Vero 76 cells, test compounds): > 1100 µM
- CC50 [4, 43]: 1100 µM
- SI ([5]; POV-1, SI = CC50/EC50): 0
- EC50 ([5]; POV-1, Vero 76 cells, test compounds): > 1000 µM
- CC50 [5, 43]: 1000 µM
- CC50 [6]: 1900 µM
- EC50 [6]: > 1900 µM
- SI ([6]; RSV, SI = CC50/EC50): 0
- CC50 [7]: > 2000 µM
- EC50 [7]: > 2000 µM
- SI ([7]; SARS-CoV-2, SI = CC50/EC50): 0
- CC50 [8]: 1700 µM
- EC50 [8]: > 1700 µM
- SI ([8]; JEV, SI = CC50/EC50): 0
- CC50 ([9]; BHK-21 cells without virus, test compounds): > 2000 µM
- EC50 ([9]; POWV, BHK-21 cells, test compounds): > 2000 µM
- SI ([9]; POWV, SI = CC50/EC50): 0
- CC50 [10]: 1400 µM
- EC50 [10]: > 1400 µM
- SI ([10]; WNV, SI = CC50/EC50): 0
- CC50 [11]: > 100 µM
- CC50 [12]: > 2000 µM
- EC50 [12]: > 2000 µM
- SI ([12]; Ad5, SI = CC50/EC50): 0
- SI ([13]; SARS-CoV, SI = CC50/EC50): 0
- EC50 ([13]; SARS-CoV, Vero 76 cells, test compounds): > 1500 µM
- CC50 [13, 43]: 1500 µM
- CC50 [14]: 390 µM
- EC50 ([14]; 33°C): > 390 µM
- SI ([14]; EV-68, SI = CC50/EC50): 0
- CC50 [15]: 1500 µM
- EC50 [15]: > 1500 µM
- SI ([15]; Zika, SI = CC50/EC50): 0
- SI ([16]; RVFV, SI = CC50/EC50): 0
- EC50 ([16]; RVFV, Vero 76 cells, test compounds): > 1100 µM
- CC50 [16, 43]: 1100 µM
- EC50 ([17]; hCMV AD169, MRC5 cells): > 100 µM
- CC50 [18]: 1200 µM
- EC50 [18]: > 1200 µM
- SI [18]: 0
- CC50 [19]: > 2000 µM
- EC50 [19]: > 2000 µM
- SI ([19]; DV-2, SI = CC50/EC50): 0
- CC50 [20]: 1400 µM
- EC50 [20]: 560 µM
- antiviral activity against Influenza (H1N1) (in words) [20]: exhibits antiviral activity
- SI ([20]; influenza A(H1N1), SI = CC50/EC50): 2.5

Compound: CCCCCCCCCCCCCCCCOCCCOP(=O)(O)OCC1=CC(O)C(n2ccc(=O)[nH]c2=O)O1 (centres unmarked) [AB23039]
- IC50 [21]: > 100 µM
- CC50 [22]: 71.8 µM
- half-life at 0.75 µM [23]: > 9.32 h
- half-life at 0.75 μM [23]: > 9.3 h
- Activity [24]: HI (key: NA (Not Active) SI50 = 0-3.9; LO (Slightly Active) SI50 = 4-9.9; MOD (Moderately Active) SI50 = 10-19.9; HI (Highly Active) SI50 = ≥20)
- activity against JC virus (in words) [24]: high activity
- half-life at 0.75 µM [25]: > 9.32 h
- half-life at 0.75 μM [25]: > 9.3 h
- EC50 [26]: 0.21 µM
- EC90 [26]: 23.4 µM
- CC50 at 7 d [27]: > 150 µM
- EC50 [28]: 0.86 µM
- EC90 [28]: 7.76 µM
- CC50 at 7 days [29]: 46.8 µM
- EC50 ([30]; JC polyomavirus, COS-7, 168 h): 3.07 µM
- EC90 ([30]; JC polyomavirus, COS-7, 168 h): 9.44 µM
- Activity ([30]; secondary JCV assay, COS7 cells, class by SI50): MOD (MOD (Moderately Active) SI50 = 10-19.9)
- antiviral activity against JCV (in words) ([30]; secondary testing, COS7 cells): moderate
- microsomal CLint at 1 μM ([31]; s9): 5.2 µL/min/mg
- half-life at 1 μM ([31]; s9, T1/2): 4.41 h
- CC50 [32]: 90.9 µM
- CLhep ([33]; 1 μM): 14.3 mL/min/kg
- Eh ([33]; 1 μM): 26%
- Peak area ratio, parent ([33]; 15 min): 3.61E−01
- Peak area ratio, parent ([33]; 60 min): 3.25E−01
- hydrolytic stability in hepatic S9 (in words) ([33]; s9): most stable
- T1/2 ([33]; s9, 1 μM): 5.78 h
- microsomal CLint at 1 μM ([34]; s9): 4 µL/min/mg
- half-life at 1 μM ([34]; s9, T1/2): 5.79 h
- CLhep ([35]; 1 μM): 9.1 mL/min/kg
- Eh ([35]; 1 μM): 44%
- Peak area ratio, parent ([35]; 15 min, 1 μM): 3.41E−01
- Peak area ratio, parent ([35]; 60 min, 1 μM): 3.09E−01
- hydrolytic stability in hepatic S9 (in words) ([35]; s9): most stable
- T1/2 ([35]; s9, 1 μM): 4.42 h
- CC50 at 6 days [36]: 42.2 µM
- Activity [37]: HI (key: NA (Not Active) SI50 = 0-3.9; LO (Slightly Active) SI50 = 4-9.9; MOD (Moderately Active) SI50 = 10-19.9; HI (Highly Active) SI50 = ≥20)
- activity against BK virus (in words) [37]: high activity
- EC50 ([17]; Human betaherpesvirus 5, 144 h, hCMV AD169, MRC5 cells): 18.1 µM
- antiviral activity against hCMV (in words) ([17]; MRC5 cells, AD169 strain): impressive antiviral activity
- Selectivity Index (CC50/EC50) ([17]; hCMV AD169, MRC5 cells): 2.33

Compound: COc1ccc2c(c1)[C@]13CCCC[C@@H]1[C@H](C2)N(C)CC3 [Dextromethorphan]
- T1/2 ([38]; human liver S9, 0.5 mg/mL, NADPH incubation (Table 24 gives without NADPH)): 1.57 h
- microsomal CLint at 1 μM ([38]; human, s9): 14.7 µL/min/mg
- CLhep ([38]; human, predicted from S9 CLint (well-stirred model)): 14.3 mL/min/kg
- CLhep ([39]; predicted from S9 CLint (well-stirred model)): 37.2 mL/min/kg
- half-life at 1 μM ([39]; s9): 0.98 h
- microsomal CLint at 1 μM ([39]; s9): 23.6 µL/min/mg

Compound: CCOC(=O)c1ccc(OCCC2CCN(c3ccc(C)nn3)CC2)cc1 [Pirodavir]
- CC50 ([14]; human): 4.3 µg/mL
- EC50 [40]: 0.039 µg/mL (≈ 0.106 µM)

Compound: N#C[C@@]1(c2ccc3c(N)ncnn23)OC(COP(=O)(O)OP(=O)(O)OP(=O)(O)O)=C[C@H]1O [ddhREM-TP, ddhRemdesivir]
- incorporation into RNA by SARS-Cov2 RdRp (in words) [41]: incorporated into RNA as ATP analogs
- chain termination of RNA synthesis (in words) [42]: caused termination of RNA synthesis
